Results published in ChEMBL document CHEMBL1955784, “Novel 5-substituted 1H-tetrazoles as cyclooxygenase-2 (COX-2) inhibitors” (Bioorg Med Chem Lett, 2012).
pIC50: −log10 of the molar value.

Key:
[1] = molecular target: T1, Prostaglandin G/H synthase 1 (Ovis aries, UniProt P05979); experiment: Competitive inhibition of ovine COX1 by enzyme immunoassay
T1 sequence (P05979 whole entry): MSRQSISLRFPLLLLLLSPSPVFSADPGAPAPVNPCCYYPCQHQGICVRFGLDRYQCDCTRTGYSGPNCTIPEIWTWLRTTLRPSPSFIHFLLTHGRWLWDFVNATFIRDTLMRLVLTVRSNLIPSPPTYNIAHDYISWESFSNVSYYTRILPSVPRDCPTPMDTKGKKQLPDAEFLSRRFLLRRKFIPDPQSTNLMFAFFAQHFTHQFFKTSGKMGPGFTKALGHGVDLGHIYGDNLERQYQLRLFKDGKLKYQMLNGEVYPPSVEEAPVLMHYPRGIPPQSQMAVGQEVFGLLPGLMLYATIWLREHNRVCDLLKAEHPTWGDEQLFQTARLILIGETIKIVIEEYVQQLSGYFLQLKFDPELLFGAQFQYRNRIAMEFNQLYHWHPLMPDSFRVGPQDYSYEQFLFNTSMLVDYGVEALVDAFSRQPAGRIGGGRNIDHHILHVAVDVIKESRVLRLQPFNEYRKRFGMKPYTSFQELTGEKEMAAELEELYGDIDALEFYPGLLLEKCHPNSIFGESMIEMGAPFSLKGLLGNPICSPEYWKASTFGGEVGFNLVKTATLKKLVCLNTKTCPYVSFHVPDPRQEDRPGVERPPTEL

[2] = molecular target: T2, Prostaglandin G/H synthase 2 (Homo sapiens, UniProt P35354); experiment: Competitive inhibition of human recombinant COX2 by enzyme immunoassay
T2 sequence (P35354 whole entry): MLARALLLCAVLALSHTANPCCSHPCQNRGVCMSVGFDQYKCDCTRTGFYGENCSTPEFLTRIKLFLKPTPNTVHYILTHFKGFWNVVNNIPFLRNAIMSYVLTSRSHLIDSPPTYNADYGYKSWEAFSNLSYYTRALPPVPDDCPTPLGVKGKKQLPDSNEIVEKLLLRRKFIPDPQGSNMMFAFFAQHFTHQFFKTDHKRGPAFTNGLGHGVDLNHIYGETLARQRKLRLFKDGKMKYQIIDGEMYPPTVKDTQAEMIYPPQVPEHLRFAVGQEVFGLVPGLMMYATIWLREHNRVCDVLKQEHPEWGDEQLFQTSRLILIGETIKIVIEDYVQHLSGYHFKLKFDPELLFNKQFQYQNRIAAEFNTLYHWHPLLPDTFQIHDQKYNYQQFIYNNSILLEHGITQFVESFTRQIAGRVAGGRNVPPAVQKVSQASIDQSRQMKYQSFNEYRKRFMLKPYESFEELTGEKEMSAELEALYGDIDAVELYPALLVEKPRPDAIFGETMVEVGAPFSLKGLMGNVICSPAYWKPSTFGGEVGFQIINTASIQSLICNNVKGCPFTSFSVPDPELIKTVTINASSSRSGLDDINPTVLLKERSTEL

| pIC50 [1] | pIC50 [2] | SMILES |
| --- | --- | --- |
| < 4.00 | 4.82 | CS(=O)(=O)c1ccc(-n2nnnc2-c2ccc(F)cc2)cc1 |
| < 4.00 | 4.49 | CS(=O)(=O)c1ccc(-n2nnnc2-c2ccc(Cl)cc2)cc1 |

Second part, the compound before the results:

| SMILES | pIC50 [1] | pIC50 [2] |
| --- | --- | --- |
| Cc1ccc(-c2nnnn2-c2ccc(S(N)(=O)=O)cc2)cc1 | < 4.00 | < 4.00 |
| NS(=O)(=O)c1ccc(-n2nnnc2-c2ccc(Cl)cc2)cc1 | < 4.00 | 4.21 |
| CS(=O)(=O)c1ccc(-n2nnnc2-c2ccc([N+](=O)[O-])cc2)cc1 | < 4.00 | 4.16 |
